These results are taken from ChEMBL document CHEMBL1201862, “PubChem BioAssay data set” (2004).

In test [1] the target is Dual specificity tyrosine-phosphorylation-regulated kinase 1A (Rattus norvegicus, UniProt Q63470). Type of test: biochemical, Homo sapiens.
The target of test [2] is Glycogen synthase kinase-3 alpha (Homo sapiens, UniProt P49840). The experiment in a line: human GSK3 alpha kinase inhibition, dose response, selectivity assay for GSK3beta inhibitor project, biochemical, microfluidics, dry powder samples, set 2 (AID 623978). Format: functional.
Test [3] addresses T1, Cyclin-dependent kinase 5/CDK5 activator 1 (Homo sapiens, UniProt Q00535). Nature of the test: CDK5-p25 kinase inhibition, dose response, selectivity assay for GSK3beta inhibitor project, biochemical, microfluidic mobility shift, dry powder, set 2 (AID 623979). Type of test: functional.
Test [4] in a line: THP-1 cell cytotoxicity, dose response, cytotoxicity control for Vif-APOBEC3G degradation inhibitor project, THP-1 cells (AID 1117359). The settings on record: Human immunodeficiency virus 1, THP-1. Format: functional.
The nature of test [5]: HepG2 cell cytotoxicity, dose response, cytotoxicity control, ATP luminescence, cherry-pick, activator set 2 (AID 1053143). Format: functional, cell-based.
Test [6] has as its target Glycogen synthase kinase-3 beta (Homo sapiens, UniProt P49841). The experiment in a line: GSK3beta kinase inhibitors, dose response, biochemical, microfluidics, dry powder samples, set 2 (AID 623989). Format: functional.
Test [7] deals with T1, Cyclin-dependent kinase 5/CDK5 activator 1. The experiment in a line: CDK5/p35 kinase inhibitors, dose response, biochemical, cherry-picked samples, set 2 (AID 504545).
For test [8], the target named is Dual specificity tyrosine-phosphorylation-regulated kinase 3 (Homo sapiens, UniProt O43781). Format: functional.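 Also: measured as one member of a broad kinase panel.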
In test [9] the target is Cell division cycle 7-related protein kinase (Homo sapiens, UniProt O00311). Format: functional.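 Also: value obtained from a kinome-wide kinase panel.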
Test [10] deals with Testis-specific serine/threonine-protein kinase 2 (Homo sapiens, UniProt Q96PF2). Format: functional.
In test [11] the target is Tyrosine-protein kinase Fyn (Homo sapiens, UniProt P06241). Type of test: functional.
For test [12], the target named is Eukaryotic elongation factor 2 kinase (Homo sapiens, UniProt O00418). Format: functional.
Test [13] concerns the target Cyclin-dependent kinase 1 (Homo sapiens, UniProt P06493). Format: functional.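 Also: Kinome-wide panel profiling, with the target listed as panel member CDC2.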
Test [14] deals with Tyrosine-protein kinase receptor UFO (Homo sapiens, UniProt P30530). Type of test: functional.
In test [15] the target is G protein-coupled receptor kinase 5 (Homo sapiens, UniProt P34947). The experiment in a line: Navigating the Kinome. Panel member name: GPRK5. Format: functional.
The target in test [16] is Protein kinase C zeta type (Homo sapiens, UniProt Q05513). Type of test: functional.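 Also: measured as one member of a broad kinase profiling panel.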
Test [17] addresses Proto-oncogene tyrosine-protein kinase Src (Homo sapiens, UniProt P12931). Type of test: functional.
Test [18] addresses Dual specificity tyrosine-phosphorylation-regulated kinase 4 (Homo sapiens, UniProt Q9NR20). Format: functional.
For test [19], the target named is Protein kinase C gamma type (Homo sapiens, UniProt P05129). Format: functional.
In test [20] the target is MAP kinase-activated protein kinase 3 (Homo sapiens, UniProt Q16644). Format: functional.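 Also: value comes from a kinome-wide profiling panel in which MAPKAPK3 is one of the panel members.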
In test [21] the target is Lymphokine-activated killer T-cell-originated protein kinase (Homo sapiens, UniProt Q96KB5). Type of test: functional.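 Also: value comes from a kinase panel screen in which TOPK was one of the panel members.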
Test [22] concerns the target Protein-tyrosine kinase 6 (Homo sapiens, UniProt Q13882). Format: functional.

The source made the active and inactive calls. Some results are limits rather than exact numbers.

T1 sequence (Q00535 whole entry): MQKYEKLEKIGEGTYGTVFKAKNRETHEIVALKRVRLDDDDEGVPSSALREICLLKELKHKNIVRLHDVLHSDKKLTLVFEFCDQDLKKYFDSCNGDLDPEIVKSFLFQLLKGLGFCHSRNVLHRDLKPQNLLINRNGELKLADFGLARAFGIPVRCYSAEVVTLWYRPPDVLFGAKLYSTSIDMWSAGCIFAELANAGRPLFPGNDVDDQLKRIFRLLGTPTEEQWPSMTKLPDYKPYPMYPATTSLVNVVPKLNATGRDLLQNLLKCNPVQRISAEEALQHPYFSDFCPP
T1 sequence (Q15078 whole entry, further chain): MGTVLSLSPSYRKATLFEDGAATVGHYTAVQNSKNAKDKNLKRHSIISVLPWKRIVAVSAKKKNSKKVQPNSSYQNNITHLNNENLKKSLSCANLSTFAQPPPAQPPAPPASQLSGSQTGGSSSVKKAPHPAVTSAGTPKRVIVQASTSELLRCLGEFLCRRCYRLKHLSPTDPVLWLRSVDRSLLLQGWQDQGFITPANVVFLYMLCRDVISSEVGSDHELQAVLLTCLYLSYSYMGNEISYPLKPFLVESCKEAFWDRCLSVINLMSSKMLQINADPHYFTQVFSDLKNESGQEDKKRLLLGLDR
Sequence of MAP kinase-activated protein kinase 3 (Q16644 whole entry): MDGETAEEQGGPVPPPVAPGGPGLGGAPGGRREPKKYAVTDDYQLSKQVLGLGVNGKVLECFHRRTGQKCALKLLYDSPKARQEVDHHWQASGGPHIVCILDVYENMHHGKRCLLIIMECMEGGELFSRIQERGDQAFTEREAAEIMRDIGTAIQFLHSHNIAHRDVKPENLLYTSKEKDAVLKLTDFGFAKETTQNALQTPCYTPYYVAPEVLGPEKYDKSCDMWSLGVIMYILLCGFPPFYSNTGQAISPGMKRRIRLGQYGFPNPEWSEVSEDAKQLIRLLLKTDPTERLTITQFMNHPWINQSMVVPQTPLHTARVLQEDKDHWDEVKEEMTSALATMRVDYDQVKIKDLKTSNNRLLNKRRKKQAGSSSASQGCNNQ
Sequence of Cell division cycle 7-related protein kinase (O00311 whole entry): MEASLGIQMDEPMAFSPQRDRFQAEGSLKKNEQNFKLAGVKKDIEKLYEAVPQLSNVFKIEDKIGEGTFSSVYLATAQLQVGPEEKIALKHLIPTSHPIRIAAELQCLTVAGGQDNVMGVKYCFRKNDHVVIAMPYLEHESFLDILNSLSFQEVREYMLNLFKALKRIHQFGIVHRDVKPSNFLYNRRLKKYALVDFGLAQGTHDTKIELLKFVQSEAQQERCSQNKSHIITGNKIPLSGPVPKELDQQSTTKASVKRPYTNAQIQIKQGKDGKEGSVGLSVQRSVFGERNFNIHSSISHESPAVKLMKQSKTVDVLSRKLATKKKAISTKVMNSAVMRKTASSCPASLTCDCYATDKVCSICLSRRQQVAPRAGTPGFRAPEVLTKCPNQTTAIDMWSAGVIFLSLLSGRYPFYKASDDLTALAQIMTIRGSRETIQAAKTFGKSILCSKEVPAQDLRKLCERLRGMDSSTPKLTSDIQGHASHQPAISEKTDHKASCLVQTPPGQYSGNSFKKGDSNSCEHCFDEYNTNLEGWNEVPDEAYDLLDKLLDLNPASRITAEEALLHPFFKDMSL
Sequence of Lymphokine-activated killer T-cell-originated protein kinase (Q96KB5 whole entry): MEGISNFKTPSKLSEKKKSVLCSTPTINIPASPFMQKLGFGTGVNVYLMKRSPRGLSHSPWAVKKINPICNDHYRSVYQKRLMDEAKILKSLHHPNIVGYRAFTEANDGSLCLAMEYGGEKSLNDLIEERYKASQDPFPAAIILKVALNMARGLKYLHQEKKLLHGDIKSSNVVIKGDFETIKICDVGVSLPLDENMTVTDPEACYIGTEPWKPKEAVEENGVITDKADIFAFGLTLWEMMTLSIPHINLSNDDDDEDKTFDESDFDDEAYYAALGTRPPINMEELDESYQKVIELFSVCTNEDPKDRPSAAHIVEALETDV
Sequence of Protein-tyrosine kinase 6 (Q13882 whole entry): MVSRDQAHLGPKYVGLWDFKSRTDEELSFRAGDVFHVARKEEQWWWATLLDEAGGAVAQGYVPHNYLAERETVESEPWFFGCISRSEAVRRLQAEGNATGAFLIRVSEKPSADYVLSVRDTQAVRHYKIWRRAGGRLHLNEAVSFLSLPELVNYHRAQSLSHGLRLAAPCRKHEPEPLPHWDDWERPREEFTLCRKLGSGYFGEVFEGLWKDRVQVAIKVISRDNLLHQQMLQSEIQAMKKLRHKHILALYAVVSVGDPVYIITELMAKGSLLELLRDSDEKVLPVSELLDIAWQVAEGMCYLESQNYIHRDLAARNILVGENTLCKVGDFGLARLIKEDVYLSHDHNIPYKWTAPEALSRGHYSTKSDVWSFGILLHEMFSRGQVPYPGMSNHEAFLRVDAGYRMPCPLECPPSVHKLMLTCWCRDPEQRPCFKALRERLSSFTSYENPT
Sequence of Protein kinase C zeta type (Q05513 whole entry): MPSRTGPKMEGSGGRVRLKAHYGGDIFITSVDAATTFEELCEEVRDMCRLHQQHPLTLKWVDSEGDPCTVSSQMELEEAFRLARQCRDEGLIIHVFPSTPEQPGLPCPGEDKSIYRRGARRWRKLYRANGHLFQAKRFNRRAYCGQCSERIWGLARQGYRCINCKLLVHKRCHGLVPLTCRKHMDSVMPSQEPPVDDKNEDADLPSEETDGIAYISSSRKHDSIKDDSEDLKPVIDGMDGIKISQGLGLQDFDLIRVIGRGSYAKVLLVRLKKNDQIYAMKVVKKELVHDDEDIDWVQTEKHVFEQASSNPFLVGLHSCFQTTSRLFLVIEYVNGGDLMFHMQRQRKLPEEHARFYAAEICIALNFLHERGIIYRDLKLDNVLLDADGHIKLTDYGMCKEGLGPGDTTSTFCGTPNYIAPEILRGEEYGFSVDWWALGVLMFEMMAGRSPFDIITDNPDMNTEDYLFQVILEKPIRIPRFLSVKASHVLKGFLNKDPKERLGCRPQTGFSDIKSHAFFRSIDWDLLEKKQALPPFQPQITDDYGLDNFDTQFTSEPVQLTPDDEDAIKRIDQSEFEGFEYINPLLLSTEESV
Sequence of Glycogen synthase kinase-3 beta (P49841 whole entry): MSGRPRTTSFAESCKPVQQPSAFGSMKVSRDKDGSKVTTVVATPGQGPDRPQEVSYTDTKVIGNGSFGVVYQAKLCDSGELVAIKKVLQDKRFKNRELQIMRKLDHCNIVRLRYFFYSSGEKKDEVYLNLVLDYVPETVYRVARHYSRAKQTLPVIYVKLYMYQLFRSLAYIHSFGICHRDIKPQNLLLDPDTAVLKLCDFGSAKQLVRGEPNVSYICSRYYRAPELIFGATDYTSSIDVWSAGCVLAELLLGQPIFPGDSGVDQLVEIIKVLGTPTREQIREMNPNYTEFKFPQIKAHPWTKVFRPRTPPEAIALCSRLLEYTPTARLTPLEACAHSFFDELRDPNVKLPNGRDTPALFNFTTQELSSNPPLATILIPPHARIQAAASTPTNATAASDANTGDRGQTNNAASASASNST
Sequence of Cyclin-dependent kinase 1 (P06493 whole entry): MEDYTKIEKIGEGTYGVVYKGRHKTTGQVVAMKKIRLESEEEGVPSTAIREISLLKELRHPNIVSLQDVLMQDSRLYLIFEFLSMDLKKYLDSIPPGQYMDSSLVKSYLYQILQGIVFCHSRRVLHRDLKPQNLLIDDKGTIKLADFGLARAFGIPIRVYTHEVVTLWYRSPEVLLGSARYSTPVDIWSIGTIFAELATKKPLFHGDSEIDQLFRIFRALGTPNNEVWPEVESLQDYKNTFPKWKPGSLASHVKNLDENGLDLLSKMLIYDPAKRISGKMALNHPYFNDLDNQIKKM
Sequence of Glycogen synthase kinase-3 alpha (P49840 whole entry): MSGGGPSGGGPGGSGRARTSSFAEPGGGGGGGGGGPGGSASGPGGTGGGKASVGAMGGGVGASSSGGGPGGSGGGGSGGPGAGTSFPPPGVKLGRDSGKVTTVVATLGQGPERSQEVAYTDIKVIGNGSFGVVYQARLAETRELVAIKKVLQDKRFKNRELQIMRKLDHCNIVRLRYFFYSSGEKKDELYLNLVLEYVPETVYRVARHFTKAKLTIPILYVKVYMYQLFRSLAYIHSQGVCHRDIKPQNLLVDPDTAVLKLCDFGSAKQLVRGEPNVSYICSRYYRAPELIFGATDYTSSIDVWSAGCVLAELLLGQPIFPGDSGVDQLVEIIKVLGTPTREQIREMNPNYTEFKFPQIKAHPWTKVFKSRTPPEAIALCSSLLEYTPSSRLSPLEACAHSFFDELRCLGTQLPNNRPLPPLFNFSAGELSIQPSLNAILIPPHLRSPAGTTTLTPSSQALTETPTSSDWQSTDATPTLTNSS
Sequence of G protein-coupled receptor kinase 5 (P34947 whole entry): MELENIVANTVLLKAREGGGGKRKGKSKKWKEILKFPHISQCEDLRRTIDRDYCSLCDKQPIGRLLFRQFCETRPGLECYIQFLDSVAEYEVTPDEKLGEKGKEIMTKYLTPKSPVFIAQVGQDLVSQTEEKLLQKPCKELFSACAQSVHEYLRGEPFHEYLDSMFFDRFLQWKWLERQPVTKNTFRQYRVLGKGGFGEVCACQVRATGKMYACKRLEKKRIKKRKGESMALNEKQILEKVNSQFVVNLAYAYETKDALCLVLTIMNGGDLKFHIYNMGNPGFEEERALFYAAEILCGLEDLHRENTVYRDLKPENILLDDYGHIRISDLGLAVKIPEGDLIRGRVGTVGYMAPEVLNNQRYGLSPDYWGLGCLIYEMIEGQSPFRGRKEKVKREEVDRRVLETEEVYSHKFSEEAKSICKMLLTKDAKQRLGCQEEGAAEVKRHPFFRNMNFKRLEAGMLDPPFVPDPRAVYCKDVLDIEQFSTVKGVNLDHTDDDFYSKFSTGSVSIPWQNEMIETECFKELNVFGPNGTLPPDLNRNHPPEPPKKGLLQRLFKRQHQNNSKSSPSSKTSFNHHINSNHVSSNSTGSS

In the case of `Nc1nc(Nc2ccccc2)sc1C(=O)c1ccccc1`, the concentration at half-maximal activity (AC50) – broadly, the concentration giving half of the maximal activity seen – in test [1] was 0.811 µM (active); in [2], 0.168 µM (active); in test [3] it was 0.19 µM (active); in test [5], 18.9 µM (active); in test [6], 0.036 µM (active); in [7], 2.27 µM (active). For the same molecule, the half-maximal cytotoxic concentration (CC50) (usually the concentration giving 50% cytotoxicity) in [4] is 14 µM (active).
`COc1cc2c(Oc3ccc4[nH]c(C)cc4c3F)ncnc2cc1OCCCN1CCCC1` [CEDIRANIB]: the Ki (in general, the equilibrium dissociation constant of an inhibitor or competing ligand from its target) is > 6.31 µM (inactive) in test [8]; > 1.26 µM (inactive) in test [9]; > 1.58 µM (inactive) in test [10]; 0.501 µM (active) in test [11]; > 3.98 µM (inactive) in [12]; > 7.94 µM (inactive) in test [13]. Besides, the inhibition constant Ki in test [14] was 0.316 µM (active); in [15], > 3.98 µM (inactive); in test [16] it was > 7.94 µM (inactive); in test [17], 0.0501 µM (active); in [18], > 7.94 µM (inactive); in [19], > 7.94 µM (inactive). For the same molecule, the values for the Ki in test [20], in test [21] and in test [22] were > 10 µM (inactive), > 10 µM (inactive) and 0.0398 µM (active), respectively.
